Where “and” joins values, the source holds several entries; their conditions need not be identical. Equal values may be shown once.
Assay: Single dose oral capsule pharmacokinetics of BHV-3500 in dogs (plasma LC-MS/MS)
Assay type: in vivo, beagle dogs
Design: key to t1/2 / Tmax / Cmax / AUC0-4 hr: X = no plasma exposure
Details: for increase of plasma level versus no vehicle (Group 4): Group 5, 50 mg with Vehicle 6
Description: The pharmacokinetics (PK) of BHV-3500 after a single oral capsule of BHV-3500 in dogs were investigated.
After each dose, blood samples (approximately 3 mL from the jugular vein) for determination of plasma levels of BHV-3500 were obtained from of each dog at six time points (pre-dose; 15, 30, and 60 minutes and 2 and 4 hours post-dose. EDTA was used as the anticoagulant. Plasma samples were frozen at approximately −70′C until analyzed.
For the determination of BHV-3500 in plasma, a 50 μL aliquot from each sample was transferred into the appropriate well of a 96-well plate to which 10 μL of 50% acetonitrile (ACN) in water was added, followed by 250 μL of internal standard solution (10 ng/mL BHV-3500-d8 in ACN). After sealing the plate and vortexing for approximately 5 minutes, the plate was centrifuged at 4,000 rpm for 10 minutes at 4±4° C. A portion (100 μL) of the resulting supernatant was transferred to into the appropriate well (containing 300 μL 0.15% formic acid in water) of another 96-well plate. This plate was sealed and its contents mixed prior to instrumental analysis.
Freshly prepared BHV-3500 standard curves and QC samples were analyzed along with the study samples. Instrument calibrators were prepared by adding 10 μL of a stock BHV-3500 solution to 50 μL of blank dog plasma. Blank dog plasma was sourced from BioIVT (Hicksville, NY) and stored frozen at −20° C. Nominal calibrator concentrations ranged from 2.00 to 200 ng/mL. QC samples were prepared at concentrations of 6.00, 50.0 and 150 ng/mL. Calibrators and QC samples were processed for analysis following the extraction procedure described above.
Calibrator, QC and study samples were analyzed under LC-S/MS instrument conditions detailed in Table 7.
Calibration curves were calculated from the linear regression (weighting factor of 1/x2) of the analyte to internal standard peak area ratios versus the analyte concentrations. Concentrations of analyte in the samples were determined using the peak area ratios and the regression parameters of the calibration curves.
Individual animal plasma BHV-3500 concentration data at scheduled (nominal) sampling times were analyzed using the non-compartmental model f r extravascular administration with Phoenix WinNonlin software (Version 8.1; Certara, Princeton, NJ).
Elimination rate constant values (λz) were calculated by log-linear regression on data points of the terminal phase (using Phoenix WinNonlin's Best Fit Lambda Z Calculation Method option) when allowed by the data; the plasma elimination half-life (t1/2) was calculated as ln(2)/λz. Area under the plasma concentration-time curve values from time zero to the concentration at the 4 hour time point (AUC0-4 hr) were calculated by the linear-up/log-down trapezoidal rule.
Nominal dose levels were used for PK analysis. The PK parameters listed below were evaluated (as applicable and when allowed by the data). • Elimination half-life (t1/2) • Time of occurrence of maximum plasma concentration (Tmax) • Maximum plasma concentration (Cmax) • Area under plasma concentration-time curve [0 to the 4 hour time point; AUC0-4hr]

[1] = Group 1, oral capsule, 20 mg BHV-3500, no vehicle, average
[2] = Group 1, oral capsule, 20 mg BHV-3500, no vehicle, median
[3] = Group 3, oral capsule, 20 mg BHV-3500 in 25 mg DDM, individual dogs
[4] = Group 5, oral capsule, 50 mg BHV-3500 in 900 mg vehicle of Formulation 2 (SEDDS excipients), individual dogs

Cc1cc(C[C@@H](NC(=O)N2CCC(c3cc4ccccc4[nH]c3=O)CC2)C(=O)N2CCN(C3CCN(C)CC3)CC2)cc2cn[nH]c12 [BHV-3500, (R)—N-(3-(7-methyl-1H indazol-5-yl)-1-(4-(1-methylpiperidin-4-yl)piperazin-1-yl)-1-oxopropan-2-yl)-4-(2-oxo-1,2 dihydroquinolin-3-yl)piperidine-1-carboxamide]
plasma levels at all time points (Group 1, oral capsule, 20 mg BHV-3500, no vehicle): BQL (BQL = below quantitation limit (2.0 ng/mL))
BHV-3500 Concentration in Dog Plasma (Group 1, oral capsule, 20 mg BHV-3500, no vehicle, 0.25 h post-dose, average): BQL (BQL = below quantitation limit (2.0 ng/mL))
BHV-3500 Concentration in Dog Plasma (Group 1, oral capsule, 20 mg BHV-3500, no vehicle, 0.25 h post-dose, individual dogs): BQL (BQL = below quantitation limit (2.0 ng/mL))
BHV-3500 Concentration in Dog Plasma (Group 1, oral capsule, 20 mg BHV-3500, no vehicle, 0.5 h post-dose, average): BQL (BQL = below quantitation limit (2.0 ng/mL))
BHV-3500 Concentration in Dog Plasma (Group 1, oral capsule, 20 mg BHV-3500, no vehicle, 0.5 h post-dose, individual dogs): BQL (BQL = below quantitation limit (2.0 ng/mL))
BHV-3500 Concentration in Dog Plasma (Group 1, oral capsule, 20 mg BHV-3500, no vehicle, 1 h post-dose, average): BQL (BQL = below quantitation limit (2.0 ng/mL))
BHV-3500 Concentration in Dog Plasma (Group 1, oral capsule, 20 mg BHV-3500, no vehicle, 1 h post-dose, individual dogs): BQL (BQL = below quantitation limit (2.0 ng/mL))
BHV-3500 Concentration in Dog Plasma (Group 1, oral capsule, 20 mg BHV-3500, no vehicle, 2 h post-dose, average): BQL (BQL = below quantitation limit (2.0 ng/mL))
BHV-3500 Concentration in Dog Plasma (Group 1, oral capsule, 20 mg BHV-3500, no vehicle, 2 h post-dose, individual dogs): BQL (BQL = below quantitation limit (2.0 ng/mL))
BHV-3500 Concentration in Dog Plasma (Group 1, oral capsule, 20 mg BHV-3500, no vehicle, 4 h post-dose, average): BQL (BQL = below quantitation limit (2.0 ng/mL))
BHV-3500 Concentration in Dog Plasma (Group 1, oral capsule, 20 mg BHV-3500, no vehicle, 4 h post-dose, individual dogs): BQL (BQL = below quantitation limit (2.0 ng/mL))
AUC0-4 hr [1]: X
Cmax [1]: X
Tmax [2]: X
t1/2 [2]: X
BHV-3500 Concentration in Dog Plasma (Group 2, oral capsule, 20 mg BHV-3500 in 900 mg vehicle of Formulation 2 (SEDDS excipients), 0.25 h post-dose, average): BQL (BQL = below quantitation limit (2.0 ng/mL))
BHV-3500 Concentration in Dog Plasma (Group 2, oral capsule, 20 mg BHV-3500 in 900 mg vehicle of Formulation 2 (SEDDS excipients), 0.25 h post-dose, individual dogs): BQL (BQL = below quantitation limit (2.0 ng/mL))
BHV-3500 Concentration in Dog Plasma (Group 2, oral capsule, 20 mg BHV-3500 in 900 mg vehicle of Formulation 2 (SEDDS excipients), 0.5 h post-dose, average): BQL (BQL = below quantitation limit (2.0 ng/mL))
BHV-3500 Concentration in Dog Plasma (Group 2, oral capsule, 20 mg BHV-3500 in 900 mg vehicle of Formulation 2 (SEDDS excipients), 0.5 h post-dose, individual dogs): BQL (BQL = below quantitation limit (2.0 ng/mL))
BHV-3500 Concentration in Dog Plasma (Group 2, oral capsule, 20 mg BHV-3500 in 900 mg vehicle of Formulation 2 (SEDDS excipients), 1 h post-dose, individual dogs): BQL (BQL = below quantitation limit (2.0 ng/mL))
BHV-3500 Concentration in Dog Plasma (Group 2, oral capsule, 20 mg BHV-3500 in 900 mg vehicle of Formulation 2 (SEDDS excipients), 2 h post-dose, individual dogs): BQL (BQL = below quantitation limit (2.0 ng/mL)) and 19.4 ng/mL and 8.94 ng/mL
BHV-3500 Concentration in Dog Plasma (Group 2, oral capsule, 20 mg BHV-3500 in 900 mg vehicle of Formulation 2 (SEDDS excipients), 4 h post-dose, individual dogs): BQL (BQL = below quantitation limit (2.0 ng/mL))
Cmax (Group 2, oral capsule, 20 mg BHV-3500 in 900 mg vehicle of Formulation 2 (SEDDS excipients), individual dogs): 19.4 ng/mL and 8.94 ng/mL
BHV-3500 Concentration in Dog Plasma (Group 3, oral capsule, 20 mg BHV-3500 in 25 mg DDM, 0.25 h post-dose, average): BQL (BQL = below quantitation limit (2.0 ng/mL))
BHV-3500 Concentration in Dog Plasma (Group 3, oral capsule, 20 mg BHV-3500 in 25 mg DDM, 0.25 h post-dose, individual dogs): BQL (BQL = below quantitation limit (2.0 ng/mL))
BHV-3500 Concentration in Dog Plasma (Group 3, oral capsule, 20 mg BHV-3500 in 25 mg DDM, 0.5 h post-dose, individual dogs): BQL (BQL = below quantitation limit (2.0 ng/mL))
BHV-3500 Concentration in Dog Plasma (Group 3, oral capsule, 20 mg BHV-3500 in 25 mg DDM, 1 h post-dose, individual dogs): BQL (BQL = below quantitation limit (2.0 ng/mL))
BHV-3500 Concentration in Dog Plasma (Group 3, oral capsule, 20 mg BHV-3500 in 25 mg DDM, 2 h post-dose, individual dogs): 9.60 ng/mL and BQL (BQL = below quantitation limit (2.0 ng/mL)) and 28.2 ng/mL
BHV-3500 Concentration in Dog Plasma (Group 3, oral capsule, 20 mg BHV-3500 in 25 mg DDM, 4 h post-dose, individual dogs): BQL (BQL = below quantitation limit (2.0 ng/mL))
Cmax [3]: 9.60 ng/mL and 14.0 ng/mL and 28.2 ng/mL
Tmax [3]: 30 min
BHV-3500 Concentration in Dog Plasma (Group 4, oral capsule, 50 mg BHV-3500, no vehicle, 0.25 h post-dose, average): BQL (BQL = below quantitation limit (2.0 ng/mL))
BHV-3500 Concentration in Dog Plasma (Group 4, oral capsule, 50 mg BHV-3500, no vehicle, 0.25 h post-dose, individual dogs): BQL (BQL = below quantitation limit (2.0 ng/mL))
BHV-3500 Concentration in Dog Plasma (Group 4, oral capsule, 50 mg BHV-3500, no vehicle, 0.5 h post-dose, average): BQL (BQL = below quantitation limit (2.0 ng/mL))
BHV-3500 Concentration in Dog Plasma (Group 4, oral capsule, 50 mg BHV-3500, no vehicle, 0.5 h post-dose, individual dogs): BQL (BQL = below quantitation limit (2.0 ng/mL))
BHV-3500 Concentration in Dog Plasma (Group 4, oral capsule, 50 mg BHV-3500, no vehicle, 1 h post-dose, individual dogs): 4.25 ng/mL and 3.55 ng/mL
BHV-3500 Concentration in Dog Plasma (Group 4, oral capsule, 50 mg BHV-3500, no vehicle, 2 h post-dose, individual dogs): 4.35 ng/mL and 6.61 ng/mL
BHV-3500 Concentration in Dog Plasma (Group 4, oral capsule, 50 mg BHV-3500, no vehicle, 4 h post-dose, average): BQL (BQL = below quantitation limit (2.0 ng/mL))
BHV-3500 Concentration in Dog Plasma (Group 4, oral capsule, 50 mg BHV-3500, no vehicle, 4 h post-dose, individual dogs): BQL (BQL = below quantitation limit (2.0 ng/mL))
Cmax (Group 4, oral capsule, 50 mg BHV-3500, no vehicle, individual dogs): 4.35 ng/mL and 6.61 ng/mL
increase of plasma level versus no vehicle (Group 4) (1 hour post-dose): 3.4 ×
increase of plasma level versus no vehicle (Group 4) (2 hours post-dose): 6.6 ×
BHV-3500 Concentration in Dog Plasma (Group 5, oral capsule, 50 mg BHV-3500 in 900 mg vehicle of Formulation 2 (SEDDS excipients), 0.25 h post-dose, average): BQL (BQL = below quantitation limit (2.0 ng/mL))
BHV-3500 Concentration in Dog Plasma (Group 5, oral capsule, 50 mg BHV-3500 in 900 mg vehicle of Formulation 2 (SEDDS excipients), 0.25 h post-dose, individual dogs): BQL (BQL = below quantitation limit (2.0 ng/mL))
BHV-3500 Concentration in Dog Plasma (Group 5, oral capsule, 50 mg BHV-3500 in 900 mg vehicle of Formulation 2 (SEDDS excipients), 0.5 h post-dose, average): BQL (BQL = below quantitation limit (2.0 ng/mL))
BHV-3500 Concentration in Dog Plasma (Group 5, oral capsule, 50 mg BHV-3500 in 900 mg vehicle of Formulation 2 (SEDDS excipients), 0.5 h post-dose, individual dogs): BQL (BQL = below quantitation limit (2.0 ng/mL))
BHV-3500 Concentration in Dog Plasma (Group 5, oral capsule, 50 mg BHV-3500 in 900 mg vehicle of Formulation 2 (SEDDS excipients), 1 h post-dose, individual dogs): 6.19 ng/mL and 5.55 ng/mL and 22.7 ng/mL
BHV-3500 Concentration in Dog Plasma (Group 5, oral capsule, 50 mg BHV-3500 in 900 mg vehicle of Formulation 2 (SEDDS excipients), 2 h post-dose, individual dogs): 13.8 ng/mL and 6.90 ng/mL and 101 ng/mL
BHV-3500 Concentration in Dog Plasma (Group 5, oral capsule, 50 mg BHV-3500 in 900 mg vehicle of Formulation 2 (SEDDS excipients), 4 h post-dose, individual dogs): 6.88 ng/mL and 2.62 ng/mL and 14.4 ng/mL
AUC0-4 hr [4]: 32.8 ng·h/mL and 17.7 ng·h/mL and 161 ng·h/mL
Cmax [4]: 13.8 ng/mL and 6.90 ng/mL and 101 ng/mL
BHV-3500 Concentration in Dog Plasma (Group 6, oral capsule, 50 mg BHV-3500 in 25 mg DDM, 0.25 h post-dose, average): BQL (BQL = below quantitation limit (2.0 ng/mL))
BHV-3500 Concentration in Dog Plasma (Group 6, oral capsule, 50 mg BHV-3500 in 25 mg DDM, 0.25 h post-dose, individual dogs): BQL (BQL = below quantitation limit (2.0 ng/mL))
BHV-3500 Concentration in Dog Plasma (Group 6, oral capsule, 50 mg BHV-3500 in 25 mg DDM, 0.5 h post-dose, average): BQL (BQL = below quantitation limit (2.0 ng/mL))
BHV-3500 Concentration in Dog Plasma (Group 6, oral capsule, 50 mg BHV-3500 in 25 mg DDM, 0.5 h post-dose, individual dogs): BQL (BQL = below quantitation limit (2.0 ng/mL))
BHV-3500 Concentration in Dog Plasma (Group 6, oral capsule, 50 mg BHV-3500 in 25 mg DDM, 1 h post-dose, individual dogs): BQL (BQL = below quantitation limit (2.0 ng/mL))

Source: patent publication US12622968B2, “Formulation for oral delivery of proteins, peptides and small molecules with poor permeability” (R.P. Scherer Technologies, LLC, priority 2019, dated 2026)
